Reference: ChEMBL document CHEMBL4706511, “Structure-based design, synthesis and bioactivity evaluation of macrocyclic inhibitors of mutant isocitrate dehydrogenase 2 (IDH2) displaying activity in acute myeloid leukemia cells” (Eur J Med Chem, 2020)
Substitutions are numbered along the chain they refer to. Structures can show the parent of a compound that is named as a salt.

Key:
[1] = target: Isocitrate dehydrogenase [NADP], mitochondrial (Homo sapiens, UniProt P48735, R140Q); assay: Inhibition of IDH2 R140Q mutant (unknown origin) assessed as reduction in NADPH consumption using alpha-ketoglutarate and NADPH as substrate preincubated with enzyme for 15 mins followed by substrate addition by fluorescence based assay
Sequence of Isocitrate dehydrogenase [NADP], mitochondrial (Homo sapiens, UniProt P48735, R140Q) (P48735 40-452 R140Q limits assumed): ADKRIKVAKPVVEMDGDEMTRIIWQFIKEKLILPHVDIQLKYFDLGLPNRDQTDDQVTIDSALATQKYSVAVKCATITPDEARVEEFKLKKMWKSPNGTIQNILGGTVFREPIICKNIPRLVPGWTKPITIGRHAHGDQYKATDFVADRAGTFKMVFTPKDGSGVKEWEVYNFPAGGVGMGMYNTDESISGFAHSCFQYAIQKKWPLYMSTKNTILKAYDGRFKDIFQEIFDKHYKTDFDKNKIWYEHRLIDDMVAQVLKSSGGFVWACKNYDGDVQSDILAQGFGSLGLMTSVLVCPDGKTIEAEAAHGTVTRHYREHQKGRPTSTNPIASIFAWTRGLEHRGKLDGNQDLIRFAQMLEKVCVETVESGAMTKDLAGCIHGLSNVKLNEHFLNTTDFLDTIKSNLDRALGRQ

[2] = target: T1, Isocitrate dehydrogenase [NADP], mitochondrial (Homo sapiens, UniProt P48735); assay: Inhibition of wild type IDH2 (unknown origin) assessed as reduction in NADPH production using sodium(D)-isocitrate and NADP as substrate preincubated with enzyme for 15 mins followed by substrate addition by fluorescence based assay
T1 sequence (P48735 whole entry): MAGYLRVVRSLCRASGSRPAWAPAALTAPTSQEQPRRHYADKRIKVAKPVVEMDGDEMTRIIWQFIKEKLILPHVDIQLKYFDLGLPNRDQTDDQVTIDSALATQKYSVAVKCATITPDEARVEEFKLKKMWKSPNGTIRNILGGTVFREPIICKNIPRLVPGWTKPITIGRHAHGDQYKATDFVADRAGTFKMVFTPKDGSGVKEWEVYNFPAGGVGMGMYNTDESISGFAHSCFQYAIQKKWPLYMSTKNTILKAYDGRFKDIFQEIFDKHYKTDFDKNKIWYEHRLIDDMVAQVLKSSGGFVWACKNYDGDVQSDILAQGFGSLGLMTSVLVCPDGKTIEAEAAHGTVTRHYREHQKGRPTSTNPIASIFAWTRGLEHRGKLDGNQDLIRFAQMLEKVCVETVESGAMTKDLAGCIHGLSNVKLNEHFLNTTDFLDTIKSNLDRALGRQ

[3] = target: Isocitrate dehydrogenase [NADP], mitochondrial (Homo sapiens, UniProt P48735, R172K); assay: Inhibition of IDH2 R172K mutant (unknown origin) assessed as reduction in NADPH consumption using alpha-ketoglutarate and NADPH as substrate preincubated with enzyme for 15 mins followed by substrate addition by fluorescence based assay
Sequence of Isocitrate dehydrogenase [NADP], mitochondrial (Homo sapiens, UniProt P48735, R172K) (P48735 40-452 R172K limits assumed): as the sequence (P48735 40-452 R140Q limits assumed) above, with Q101R, R133K counted along it

WI-38 = assay: Cytotoxicity aganist human WI-38 cells; assay type: cell-based
[4] = Cytotoxicity aganist human PBMC cells; assay type: cell-based
TF-1 = assay: Cytotoxicity aganist human TF-1 cells harboring IDH2 mutant; assay type: functional, cell-based
[5] = test system: T2, Isocitrate dehydrogenase [NADP], mitochondrial (Homo sapiens), P48735 [R140Q]; assay: Potency index, ratio of AG-221 IC50 to test compound IC50 for IDH2 R140Q mutant (unknown origin) assessed as reduction in NADPH consumption using alpha-ketoglutarate and NADPH as substrate preincubated with enzyme for 15 mins followed by substrate addition by fluorescence based assay
T2 sequence (whole entry): T1 sequence (P48735 whole entry) with R140Q

[6] = Metabolic stability in human liver microsomes assessed as parent compound remaining at 100 ug/ml measured after 45 mins in presence of NADPH by LC-MS analysis; assay type: ADME, Microsome; settings: at 100 µg/mL, read-out: Stabilty
[7] = Metabolic stability in human liver microsomes assessed as parent compound remaining at 100 ug/ml measured after 15 mins in presence of NADPH by LC-MS analysis; assay type: ADME, Microsome; settings: at 100 µg/mL, read-out: Stabilty
[8] = Metabolic stability in human liver microsomes assessed as parent compound remaining at 100 ug/ml measured after 90 mins in presence of NADPH by LC-MS analysis; assay type: ADME, Microsome; settings: at 100 µg/mL, read-out: Stabilty

IC50 [1] [nM]	IC50 [2] [nM]	IC50 [3] [nM]	Ratio IC50 [5]	remaining at 0.75 h, 100 ug/ml [6] [%]	remaining at 0.25 h, 100 ug/ml [7] [%]	remaining at 1.5 h, 100 ug/ml [8] [%]	SMILES	IC50 (WI-38) [nM]	IC50 [4] [nM]	IC50 (TF-1) [nM]
267	> 20000						CC1CNc2nc(nc(-c3cccc(C(F)(F)F)n3)n2)Nc2cc(cc(C(F)(F)F)c2)C/C=C\CO1 (stereo not given)			
105	> 20000	314					O=C1OCCCCCNc2nc(nc(-c3cccc(C(F)(F)F)n3)n2)Nc2cc1cc(C(F)(F)F)c2			
38.5	> 20000	9.6					CC1(C)CNc2nc(nc(-c3cccc(C(F)(F)F)n3)n2)Nc2cc(cc(C(F)(F)F)c2)CCCCO1	10000	10000	
37.6	> 20000	46.9					FC(F)(F)c1cc2cc(c1)Nc1nc(nc(-c3cccc(C(F)(F)F)n3)n1)NCCCC/C=C/C2			
46	> 20000	167					C=CCOC(C)(C)CNc1nc(Nc2ccccc2)nc(-c2cccc(C(F)(F)F)n2)n1			> 10000
64.4	> 20000	517					FC(F)(F)c1cc2cc(c1)Nc1nc(nc(-c3cccc(C(F)(F)F)n3)n1)NCCOCCCC2	10000	10000	
699	> 20000	> 10000					O=C1NCCCCNc2nc(nc(-c3cccc(C(F)(F)F)n3)n2)Nc2cc1cc(C(F)(F)F)c2			
98.2	> 20000	1430					CC(C)(O)CNc1nc(Nc2ccccc2)nc(-c2cccc(C(F)(F)F)n2)n1			
51	> 20000	116					FC(F)(F)c1cc2cc(c1)OCCCCCNc1nc(nc(-c3cccc(C(F)(F)F)n3)n1)N2			
18.6	> 20000	881					Fc1cc2cc(c1)Nc1nc(nc(-c3cccc(C(F)(F)F)n3)n1)NCCOCCCC2			
13.8	14100	17.4	3	91	> 99	90	FC(F)(F)c1cc2cc(c1)Nc1nc(nc(-c3cccc(C(F)(F)F)n3)n1)NCCC/C=C/C2			
1240	> 20000	> 10000					FC(F)(F)c1cc2cc(c1)Nc1nc(nc(-c3cccc(C(F)(F)F)n3)n1)NCCCCC2			> 10000
683	> 20000	> 10000					FC(F)(F)c1cc2cc(c1)Nc1nc(nc(-c3cccc(C(F)(F)F)n3)n1)NCC/C=C/C2			> 10000
37.9	> 20000	830					Cc1cc2cc(c1)Nc1nc(nc(-c3cccc(C(F)(F)F)n3)n1)NCCOC/C=C\C2			
35.9	> 20000	269					CC(C)(O)CNc1nc(Nc2ccnc(C(F)(F)F)c2)nc(-c2cccc(C(F)(F)F)n2)n1 [ENASIDENIB]			
79.3	> 20000	27.4					CC1(C)CNc2nc(nc(-c3cccc(C(F)(F)F)n3)n2)Nc2cc(cc(C(F)(F)F)c2)OCCCO1			
396	> 20000						CC1(C)CNc2nc(nc(-c3cccc(C(F)(F)F)n3)n2)Nc2cc(cc(C(F)(F)F)c2)C/C=C\CO1			
36	> 20000	417					FC(F)(F)c1cccc(-c2nc3nc(n2)Nc2cc(Cl)cc(c2)C/C=C\COCCN3)n1			

IC50 [1] [nM]	IC50 [2] [nM]	IC50 [3] [nM]	Ratio IC50 [5]	remaining at 0.75 h, 100 ug/ml [6] [%]	remaining at 0.25 h, 100 ug/ml [7] [%]	remaining at 1.5 h, 100 ug/ml [8] [%]	SMILES	IC50 (WI-38) [nM]	IC50 [4] [nM]	IC50 (TF-1) [nM]
29.5	> 20000	688					Fc1cc2cc(c1)Nc1nc(nc(-c3cccc(C(F)(F)F)n3)n1)NCCOC/C=C\C2			
19.9	> 20000	30.1					FC(F)(F)c1cc2cc(c1)Nc1nc(nc(-c3cccc(C(F)(F)F)n3)n1)NCCCCCCC2			
663	> 20000	> 10000					CC(C)(O)CNc1nc(Nc2ccncc2)nc(-c2cccc(C(F)(F)F)n2)n1			> 10000
18.4	> 20000	1570		66	89	64	FC(F)(F)c1cc2cc(c1)OC/C=C\CCNc1nc(nc(-c3cccc(C(F)(F)F)n3)n1)N2			
26	> 20000	119		81	86	81	CC(C)(O)CNc1nc(Nc2cccc(C(F)(F)F)c2)nc(-c2cccc(C(F)(F)F)n2)n1			> 10000
39.9	> 20000	210					FC(F)(F)c1cc2cc(c1)Nc1nc(nc(-c3cccc(C(F)(F)F)n3)n1)NCCOC/C=C\C2	10000	10000	
			6				FC(F)(F)c1cc2cc(c1)Nc1nc(nc(-c3cccc(C(F)(F)F)n3)n1)NCCCCCC2 [listing 1 of 2 here]			
6.1	> 20000	219		94	95	85	FC(F)(F)c1cc2cc(c1)Nc1nc(nc(-c3cccc(C(F)(F)F)n3)n1)NCCCCCC2 [listing 2 of 2 here]			> 10000
12.2	> 20000	443					FC(F)(F)c1cccc(-c2nc3nc(n2)Nc2cc(Cl)cc(c2)CCCCOCCN3)n1			
124		319					CC(C)(O)CNc1nc(Nc2ccnc(C(F)(F)F)c2)nc(-c2cccc(C(F)(F)F)n2)n1 [ENASIDENIB MESYLATE]			
37.6	> 20000	92.7					FC(F)(F)c1cc2cc(c1)Nc1nc(nc(-c3cccc(C(F)(F)F)n3)n1)NCCCCC/C=C/C2			
37.2	> 20000	131		75	> 99	72	FC(F)(F)c1cc2cc(c1)Nc1nc(nc(-c3cccc(C(F)(F)F)n3)n1)NCCCCCCCC2			> 10000
17.4	> 20000	50.3					FC(F)(F)c1cc2cc(c1)OC/C=C\CCCNc1nc(nc(-c3cccc(C(F)(F)F)n3)n1)N2			
133	> 20000	45.5		97	93	85	FC(F)(F)c1cc2cc(c1)OCCCCCCNc1nc(nc(-c3cccc(C(F)(F)F)n3)n1)N2			
32.8	> 20000	15.5					C=CCOC(C)(C)CNc1nc(Nc2cccc(C(F)(F)F)c2)nc(-c2cccc(C(F)(F)F)n2)n1			
45.6	> 20000	17.7					CC1CNc2nc(nc(-c3cccc(C(F)(F)F)n3)n2)Nc2cc(cc(C(F)(F)F)c2)CCCCO1 (stereo not given)			
182	> 20000	455					CC1(C)CCNc2nc(nc(-c3cccc(C(F)(F)F)n3)n2)Nc2cc(cc(C(F)(F)F)c2)CCCCO1			
22.2	> 20000	1320					Cc1cc2cc(c1)Nc1nc(nc(-c3cccc(C(F)(F)F)n3)n1)NCCOCCCC2			
